This passage reports IC50 results from patent US20240327412A1, “FACTOR XIIA INHIBITORS” (KALVISTA PHARMACEUTICALS LIMITED, priority 2021, published 2024).

Common to all, as to type: biochemical
For one experiment, the target named is T1, Human Factor XIIa (Homo sapiens, UniProt P00748).
T1 construct: Proteolytic cleavage of FXII to heavy and light chains of FXIIa dramatically increases catalytic activity; purchased Enzyme Research Laboratories
T1 sequence (P00748 373-615 limits assumed): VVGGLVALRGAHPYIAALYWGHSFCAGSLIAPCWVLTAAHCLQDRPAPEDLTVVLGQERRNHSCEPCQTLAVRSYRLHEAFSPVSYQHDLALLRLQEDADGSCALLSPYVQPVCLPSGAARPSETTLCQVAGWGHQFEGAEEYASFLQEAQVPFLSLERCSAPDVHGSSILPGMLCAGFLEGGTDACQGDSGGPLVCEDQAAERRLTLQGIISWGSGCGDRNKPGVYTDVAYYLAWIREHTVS
T1 sequence (P00748 20-372 partner limits assumed): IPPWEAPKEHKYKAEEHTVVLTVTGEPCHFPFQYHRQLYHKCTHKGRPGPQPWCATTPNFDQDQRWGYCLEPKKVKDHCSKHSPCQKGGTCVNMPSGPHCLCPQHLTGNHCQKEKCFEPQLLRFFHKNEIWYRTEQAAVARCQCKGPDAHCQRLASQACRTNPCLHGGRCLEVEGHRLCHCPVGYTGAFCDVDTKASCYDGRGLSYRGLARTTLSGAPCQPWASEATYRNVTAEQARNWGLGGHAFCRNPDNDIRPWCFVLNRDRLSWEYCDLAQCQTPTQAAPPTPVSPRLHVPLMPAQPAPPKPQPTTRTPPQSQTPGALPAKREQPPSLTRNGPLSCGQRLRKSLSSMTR
In words: Determination of FXIIa inhibition (fluorogenic substrate H-DPro-Phe-Arg-AFC, IC50 assay). The conditions noted are these: substrate at Km concentration, 25° C.; category scale; read-out: Human FXII IC50 (nm). The essentials:
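At substrate Km and 25° C., the rate of AFC release from H-DPro-Phe-Arg-AFC by human Factor XIIa was followed for 5 min across compound concentrations. Inhibition was derived as percent of uninhibited rate, giving IC50.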

Another experiment deals with Thrombin (Homo sapiens, UniProt P00734). In words: Related protease inhibition: Thrombin (fluorogenic substrate at Km). As to conditions: class symbols per Table 18. On the procedure:
(§1) In vitro inhibition of related proteases was determined using an IC50 assay based on standard literature methods (see e.g. Shori et al., Biochem. Pharmacol., 1992, 43, 1209; Bouckaert et al., European Journal of Medicinal Chemistry 110 (2016) 181). Human serine protease enzyme Plasma Kallikrein, KLK1, FXa, Plasmin, Thrombin and Trypsin were assayed for enzymatic activity using an appropriate fluorogenic substrate at Km concentration, FXIa at fixed substrate concentration of 100 μM and various concentrations of the test compound. Protease activity was measured by monitoring the accumulation of liberated fluorescence from the substrate over 5 min at 25° C. The linear rate of fluorescence increase per minute was expressed as percentage (%) activity. IC50 values were calculated as the concentration of inhibitor giving 50% inhibition of the uninhibited enzyme activity (100%).

The target in another experiment is T2, Plasma Kallikrein (Homo sapiens, UniProt P03952).
T2 construct: FXIIa converts plasma prekallikrein (PK) to plasma kallikrein (PKa)
Put plainly: Related protease inhibition: Plasma Kallikrein (fluorogenic substrate at Km). The conditions noted are these: class symbols per Table 18, read-out: IC50 (human PKal). The essentials: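 Percent activity is derived from the linear fluorescence increase per minute, measured over 5 min at 25° C. IC50 marks 50% inhibition of uninhibited activity.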

The next experiment has as its target Trypsin (Homo sapiens, UniProt P07477). In words: Related protease inhibition: Trypsin (fluorogenic substrate at Km). As to conditions: class symbols per Table 18. On the procedure: as §1
The next experiment deals with Plasmin (Homo sapiens, UniProt P00747). Put plainly: Related protease inhibition: Plasmin (fluorogenic substrate at Km). As to conditions: class symbols per Table 18. The method, then:
as §1

The target of a further experiment is FXa (Homo sapiens, UniProt P00742). In words: Related protease inhibition: FXa (fluorogenic substrate at Km). As to conditions: class symbols per Table 18. On the procedure: as §1
In the next experiment the target is KLK1 (Homo sapiens, UniProt P06870). In words: Related protease inhibition: KLK1 (fluorogenic substrate at Km). The conditions noted are these: class symbols per Table 18. The method, then: as §1

One may read the IC50 as the midpoint of a concentration-inhibition curve.

Sequence of KLK1 (P06870 25-262): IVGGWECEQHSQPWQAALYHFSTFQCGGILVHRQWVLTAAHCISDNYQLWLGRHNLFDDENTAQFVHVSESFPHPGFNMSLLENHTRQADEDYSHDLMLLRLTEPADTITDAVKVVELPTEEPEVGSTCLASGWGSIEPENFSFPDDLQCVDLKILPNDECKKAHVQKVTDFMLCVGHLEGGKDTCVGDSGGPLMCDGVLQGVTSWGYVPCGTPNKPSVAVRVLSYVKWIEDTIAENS
T2 sequence (P03952 391-638 limits assumed): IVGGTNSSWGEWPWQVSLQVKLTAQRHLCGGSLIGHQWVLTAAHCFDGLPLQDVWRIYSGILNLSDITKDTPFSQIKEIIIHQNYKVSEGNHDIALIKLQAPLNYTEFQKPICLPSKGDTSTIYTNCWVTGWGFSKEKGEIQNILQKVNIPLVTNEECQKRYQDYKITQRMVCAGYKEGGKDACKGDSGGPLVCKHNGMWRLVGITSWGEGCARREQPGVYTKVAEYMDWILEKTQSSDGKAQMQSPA
T2 sequence (P03952 20-390 partner limits assumed): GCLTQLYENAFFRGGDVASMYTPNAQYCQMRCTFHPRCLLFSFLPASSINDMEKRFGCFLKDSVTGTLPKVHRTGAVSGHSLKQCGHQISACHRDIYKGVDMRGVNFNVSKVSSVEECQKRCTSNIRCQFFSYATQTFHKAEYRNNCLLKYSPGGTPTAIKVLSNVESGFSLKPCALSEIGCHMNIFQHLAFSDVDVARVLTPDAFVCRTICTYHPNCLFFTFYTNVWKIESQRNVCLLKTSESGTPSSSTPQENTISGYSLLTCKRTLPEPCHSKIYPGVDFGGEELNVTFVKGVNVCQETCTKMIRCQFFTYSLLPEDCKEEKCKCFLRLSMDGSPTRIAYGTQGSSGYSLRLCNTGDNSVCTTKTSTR
Sequence of FXa (P00742 235-488 limits assumed): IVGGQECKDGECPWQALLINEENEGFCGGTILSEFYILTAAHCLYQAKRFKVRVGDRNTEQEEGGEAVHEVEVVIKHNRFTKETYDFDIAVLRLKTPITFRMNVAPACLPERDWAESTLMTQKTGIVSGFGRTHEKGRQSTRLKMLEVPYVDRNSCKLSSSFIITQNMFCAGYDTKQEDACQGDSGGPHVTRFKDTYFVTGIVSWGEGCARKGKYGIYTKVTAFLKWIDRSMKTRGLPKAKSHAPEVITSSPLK
Sequence of FXa (P00742 41-179 partner limits assumed): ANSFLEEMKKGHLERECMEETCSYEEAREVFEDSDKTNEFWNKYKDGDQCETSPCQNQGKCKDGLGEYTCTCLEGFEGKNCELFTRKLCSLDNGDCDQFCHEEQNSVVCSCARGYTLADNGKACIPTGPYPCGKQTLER
Sequence of Plasmin (P00747 581-810 limits assumed): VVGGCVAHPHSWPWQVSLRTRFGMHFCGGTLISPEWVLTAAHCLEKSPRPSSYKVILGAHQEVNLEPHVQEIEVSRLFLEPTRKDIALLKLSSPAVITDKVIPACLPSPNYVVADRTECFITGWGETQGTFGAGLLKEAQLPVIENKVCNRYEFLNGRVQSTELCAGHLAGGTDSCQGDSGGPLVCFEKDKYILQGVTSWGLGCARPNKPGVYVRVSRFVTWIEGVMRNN
Sequence of Plasmin (P00747 97-580 partner limits assumed): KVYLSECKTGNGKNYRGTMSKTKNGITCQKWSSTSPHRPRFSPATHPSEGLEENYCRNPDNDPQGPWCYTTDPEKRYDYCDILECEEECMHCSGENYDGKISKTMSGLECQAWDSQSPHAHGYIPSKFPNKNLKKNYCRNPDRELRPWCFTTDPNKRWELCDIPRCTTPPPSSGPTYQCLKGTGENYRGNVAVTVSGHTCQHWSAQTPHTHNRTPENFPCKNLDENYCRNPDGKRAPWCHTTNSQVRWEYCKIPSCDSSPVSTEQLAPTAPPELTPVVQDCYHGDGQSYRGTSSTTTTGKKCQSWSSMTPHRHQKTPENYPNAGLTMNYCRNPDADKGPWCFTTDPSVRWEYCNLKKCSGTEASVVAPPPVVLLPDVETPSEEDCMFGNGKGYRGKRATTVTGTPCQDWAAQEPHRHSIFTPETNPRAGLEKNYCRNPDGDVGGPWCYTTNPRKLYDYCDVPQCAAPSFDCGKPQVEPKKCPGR

For `Nc1nccc2c(NCC34CC(COc5ccn6cnnc6c5)(CCO3)C4)cccc12` [Example 10926, 5-N-[[5-([1,2,4]Triazolo[4,3-a]pyridin-7-yloxymethyl)-2-oxabicyclo[3.1.1]heptan-1-yl]methyl]isoquinoline-1,5-diamine], the concentration for half-maximal inhibition (IC50) was 0.01 to 0.1 µM on Human Factor XIIa; greater than 40 µM at Thrombin; greater than 40 µM at Plasma Kallikrein; 3 to 10 µM against Trypsin; greater than 40 µM at Plasmin; greater than 40 µM against FXa. At KLK1, this molecule registered an IC50 of 3 to 10 µM.

Regarding `Nc1nccc2c(NC[C@H]3C[C@@H](COc4ccn5ccnc5c4)C3)cccc12` [Example 5003, N5-((cis-3-((imidazo[1,2-a]pyridin-7-yloxy)methyl)cyclobutyl)methyl)isoquinoline-1,5-diamine], the IC50 was 0.1 to 0.3 µM at Human Factor XIIa; greater than 40 µM against Thrombin; greater than 40 µM on Plasma Kallikrein; greater than 40 µM against FXa; 3 to 10 µM on KLK1.

With `c1cc2cc(NCC34CC(COc5ccn6ccnc6c5)(C3)C4)ccc2cn1` [Example 1011, N-((3-((imidazo[1,2-a]pyridin-7-yloxy)methyl)bicyclo[1.1.1]pentan-1-yl)methyl)isoquinolin-6-amine], the IC50 on Human Factor XIIa was 10 to 40 µM; at Thrombin, 10 to 40 µM; at Plasma Kallikrein it was greater than 100 µM; against FXa, 1 to 3 µM; at KLK1, 10 to 40 µM.

`Nc1nccc2c(NCC34CC(COc5ccc6nc[nH]c6c5)(C3)C4)cccc12` [Example 1105, N5-((3-(((1H-benzo[d]imidazol-6-yl)oxy)methyl)bicyclo[1.1.1]pentan-1-yl)methyl)isoquinoline-1,5-diamine]: the IC50 is 3 to 10 µM at Human Factor XIIa; 10 to 40 µM against Thrombin; greater than 40 µM on Plasma Kallikrein; 1 to 3 µM against FXa; 3 to 10 µM on KLK1.

`Cn1ccc(OCC23COC(CNc4cccc5c(N)nccc45)(C2)C3)cc1=O` [Example 6609, 4-((1-(((1-aminoisoquinolin-5-yl)amino)methyl)-2-oxabicyclo[2.1.1]hexan-4-yl)methoxy)-1-methylpyridin-2(1H)-one]: the IC50 at Human Factor XIIa is 0.1 to 0.3 µM; against Thrombin, greater than 40 µM; at Plasma Kallikrein, greater than 40 µM; against FXa it was greater than 40 µM; against KLK1, 3 to 10 µM.

In the case of `Nc1nccc2c(NCC34COC(COc5ccc6nnc(C(F)F)n6n5)(C3)C4)cccc12` [Example 2204, N5-((1-(((3-(difluoromethyl)-[1,2,4]triazolo[4,3-b]pyridazin-6-yl)oxy)methyl)-2-oxabicyclo[2.1.1]hexan-4-yl)methyl)isoquinoline-1,5-diamine], the IC50 on Human Factor XIIa is 0.3 to 1 µM; on Thrombin it was greater than 40 µM; at Plasma Kallikrein it was greater than 40 µM; against FXa it was greater than 40 µM; at KLK1, 3 to 10 µM.

Consider `Nc1nccc2c(NCC34CC(COc5cnc6cc[nH]c6c5)(C3)C4)cccc12` [Example 1101, 5-N-[[3-(1H-pyrrolo[3,2-b]pyridin-6-yloxymethyl)-1-bicyclo[1.1.1]pentanyl]methyl]isoquinoline-1,5-diamine], for which the IC50 at Human Factor XIIa is 3 to 10 µM; on Thrombin, 10 to 40 µM; at Plasma Kallikrein it was greater than 40 µM; at FXa, 1 to 3 µM; at KLK1 it was 3 to 10 µM.

Turning to `Nc1nccc2c(NC[C@H]3C[C@H](COc4ccn5ccnc5c4)C3)cccc12` [Example 4401, N5-((trans-3-((imidazo[1,2-a]pyridin-7-yloxy)methyl)cyclobutyl)methyl)isoquinoline-1,5-diamine], the IC50 is 0.3 to 1 µM at Human Factor XIIa; greater than 40 µM against Thrombin; greater than 40 µM on Plasma Kallikrein; greater than 40 µM at FXa; 1 to 3 µM against KLK1.

As for `Nc1nccc2c(NCC34CC(C(=O)N5CCn6ccnc6C5)(C3)C4)cccc12` [Example 1016, [3-[[(1-Aminoisoquinolin-5-yl)amino]methyl]-1-bicyclo[1.1.1]pentanyl]-(6,8-dihydro-5H-imidazo[1,2-a]pyrazin-7-yl)methanone], the half-inhibitory concentration (IC50) was 3 to 10 µM at Human Factor XIIa; greater than 40 µM against Thrombin; greater than 40 µM at Plasma Kallikrein; greater than 40 µM against FXa; 3 to 10 µM on KLK1.

Turning to `Cc1cc2c(NCC34CC(COc5ccn6ccnc6c5)(CO3)C4)ccnc2[nH]1` [Example 6605, N-((4-((imidazo[1,2-a]pyridin-7-yloxy)methyl)-2-oxabicyclo[2.1.1]hexan-1-yl)methyl)-2-methyl-1H-pyrrolo[2,3-b]pyridin-4-amine], the half-maximal inhibitory concentration (IC50) on Human Factor XIIa is 3 to 10 µM; against Thrombin, 10 to 40 µM; on Plasma Kallikrein, greater than 40 µM; on FXa it was 10 to 40 µM; against KLK1 it was 10 to 40 µM.

Regarding `Cc1cc2c(NCC34CC(COc5ccn6ccnc6c5)(CCO3)C4)ccnc2[nH]1` [Example 10907, N-[[5-(Imidazo[1,2-a]pyridin-7-yloxymethyl)-2-oxabicyclo[3.1.1]heptan-1-yl]methyl]-2-methyl-1H-pyrrolo[2,3-b]pyridin-4-amine], the IC50 is 1 to 3 µM at Human Factor XIIa; greater than 40 µM against Thrombin; greater than 40 µM on Plasma Kallikrein; greater than 40 µM against FXa; greater than 40 µM against KLK1.

As to `Nc1nccc2c(NCC34CC(COc5ccc6nccn6c5)(C3)C4)cccc12` [Example 1017, 5-N-[[3-(Imidazo[1,2-a]pyridin-6-yloxymethyl)-1-bicyclo[1.1.1]pentanyl]methyl]isoquinoline-1,5-diamine], the half-inhibitory concentration (IC50) on Human Factor XIIa was 0.1 to 0.3 µM; on Thrombin, 10 to 40 µM; on Plasma Kallikrein, greater than 40 µM; at FXa it was 10 to 40 µM; against KLK1 it was 3 to 10 µM.

For `Nc1nccc2c(NCC34CC(COC5Cc6nccn6C5)(C3)C4)cccc12` (centres unmarked) [Example 1118, N5-((3-(((6,7-dihydro-5H-pyrrolo[1,2-a]imidazol-6-yl)oxy)methyl)bicyclo[1.1.1]pentan-1-yl)methyl)isoquinoline-1,5-diamine], the half-inhibitory concentration (IC50) was 1 to 3 µM on Human Factor XIIa; 10 to 40 µM at Thrombin; greater than 40 µM at Plasma Kallikrein; greater than 40 µM on FXa; 3 to 10 µM on KLK1.

For `Cn1ccc(OCC23CN(C(=O)NCc4ccccc4)C(CNc4cccc5c(N)nccc45)(C2)C3)cc1=O` [Example 12017, 1-(((1-aminoisoquinolin-5-yl)amino)methyl)-N-benzyl-4-(((1-methyl-2-oxo-1,2-dihydropyridin-4-yl)oxy)methyl)-2-azabicyclo[2.1.1]hexane-2-carboxamide], the concentration for half-maximal inhibition (IC50) at Thrombin is greater than 40 µM; at Plasma Kallikrein, 10 to 40 µM; against Trypsin, greater than 40 µM; against Plasmin, 10 to 40 µM; against FXa, 10 to 40 µM; at KLK1, 3 to 10 µM.

`Nc1nccc2c(NCC34CC(COc5ccc6c(c5)C(=O)NC6)(C3)C4)cccc12` [Example 1109, 6-((3-(((1-aminoisoquinolin-5-yl)amino)methyl)bicyclo[1.1.1]pentan-1-yl)methoxy)isoindolin-1-one]: the IC50 at Human Factor XIIa is 0.3 to 1 µM; against Thrombin, 10 to 40 µM; at Plasma Kallikrein it was greater than 40 µM; against FXa, 10 to 40 µM; against KLK1 it was 1 to 3 µM.

Consider `Nc1nccc2c(NCC34CC(CN5CCn6ccnc6C5)(C3)C4)cccc12` [Example 1004, 5-N-[[3-(6,8-Dihydro-5H-imidazo[1,2-a]pyrazin-7-ylmethyl)-1-bicyclo[1.1.1]pentanyl]methyl]isoquinoline-1,5-diamine], for which the 50% inhibitory concentration (IC50) at Human Factor XIIa is 3 to 10 µM; at Thrombin, 10 to 40 µM; at Plasma Kallikrein, greater than 40 µM; against FXa, 1 to 3 µM; at KLK1 it was 3 to 10 µM.
